For 17 compounds, MIC results are on record in EP0561850B1, “7-SUBSTITUTED-6-FLUORO-1,4-DIHYDRO-4-OXO-QUINOLINE-3-CARBOXYLIC ACID COMPOUNDS USEFUL AS ANTIBACTERIAL AGENTS” (priority 1990, dated 1992).

What is called MIC is the least concentration at which growth counts as inhibited.

Common to all, as to assay: Microbroth dilution (MHB) method, NCCLS M7-A2
(Broth dilution looks for growth in wells or tubes with falling amounts of substance.)

For test [1], the system named is Providencia rettgeri S-121. The format is cell-based. As to conditions: Providencia rettgeri, S121, Pr S-121, inoculum 5 x 10^5 cfu/ml, 35 °C/18 hr, read-out: MIC. As to the method: (§1) The test organisms were obtained from ATCC and clinical laboratories. The 96-well microtitre plates containing […] of serially diluted test compounds in Mueller Hinton Broth (MHB) (conc. range 64-0.03 µg/ml) were inoculated with […] of bacterial suspension in MHB so that an inoculum size of 5 x 10^5 cfu/ml was achieved.
(§2) EC. (S- 63): Eschericia coli Ecl. (S- 130): Enterobacter cloacae Pa. (S- 67): Pseudomonas aeruginosa Kp. (S- 80): Klebsiella pneumoniae Pr.
(§3) Microbroth Dilution (MHB) method; Inoculum, 5 x 10^5 cfu/ml; Incubation 35 °C/18 hr

Test [2] relates to Pseudomonas aeruginosa S-67. Type of test: cell-based. To be noted: Pseudomonas aeruginosa, S67; Pa S-67; MHB; inoculum 5 x 10^5 cfu/ml; 35 °C/18 hr; read-out: MIC. As to the method:
as §1, §2, §3

In test [3] the test system is Klebsiella pneumoniae S-80. The format is cell-based. To be noted: Klebsiella pneumoniae, S80; Kp S-80; MHB; inoculum 5 x 10^5 cfu/ml; 35 °C/18 hr; read-out: MIC. As to the method:
as §1, §2, §3

Test [4] concerns Staphylococcus aureus S-127. The format is cell-based. As to conditions: Staphylococcus aureus, S127, Sa S-127, inoculum 5 x 10^5 cfu/ml, 35 °C/18 hr, read-out: MIC. The procedure:
as §1, §2, §3

The test system of test [5] is Eschericia coli S-63. The format is cell-based. As to conditions: Ec S-63, inoculum 5 x 10^5 cfu/ml, 35 °C/18 hr, read-out: MIC. As to the method:
as §1, §2, §3

Test [6] deals with Enterobacter cloacae S-130. Type of test: cell-based. To be noted: Enterobacter cloacae, S130, Ecl S-130, inoculum 5 x 10^5 cfu/ml, 35 °C/18 hr, read-out: MIC. As to the method: as §1, §2, §3
For test [7], the system named is Sa 127M. Type of test: cell-based, Staphylococcus aureus. To be noted: Staphylococcus aureus, inoculum 5 x 10^5 cfu/ml, 35 °C/18 hr, read-out: MIC. The procedure:
as §1, §2, §3

The structures appear in SMILES notation. Converted amounts (≈) assume the structure as drawn.

Turning to `COc1c(N2CCC(n3cncn3)C2)c(F)cc2c(=O)c(C(=O)O)cn(C3CC3)c12` (stereo not drawn) [Example 34, 1-Cyclopropyl-6-fluoro-7-[3-(1,2,4-triazol-1-yl)pyrrolidin-1-yl]-8-methoxy-1,4-dihydro-4-oxo-quinoline-3-carboxylic acid], the MIC in test [1] was determined as 0.5 µg/mL (≈ 1.21 µM); in test [2] it was 8 µg/mL (≈ 19.4 µM); in test [3], 0.5 µg/mL (≈ 1.21 µM); in test [4], 0.5 µg/mL (≈ 1.21 µM); in test [5], 0.5 µg/mL (≈ 1.21 µM); in test [6], 0.5 µg/mL (≈ 1.21 µM).

For `COc1c(N2CC[C@H](n3ccnn3)C2)c(F)cc2c(=O)c(C(=O)O)cn(C3CC3)c12` [Example 31, 1-Cyclopropyl-6-fluoro-7-[3S-(1,2,3-triazol-1-yl)pyrrolidin-1-yl]-8-methoxy-1,4-dihydro-4-oxo-quinoline-3-carboxylic acid], the MIC is at most 0.015 µg/mL in test [7]; 0.5 µg/mL (≈ 1.21 µM) in test [1]; 2 µg/mL (≈ 4.84 µM) in test [2]; 0.25 µg/mL (≈ 0.605 µM) in test [3]; at most 0.015 µg/mL in test [4]; 0.12 µg/mL (≈ 0.29 µM) in test [5]. Further, the MIC in test [6] amounted to 0.5 µg/mL (≈ 1.21 µM).

`NCc1cnnn1C1CCN(c2c(F)cc3c(=O)c(C(=O)O)cn(C4CC4)c3c2F)C1` (stereo not drawn) [Example 44]: the MIC in test [1] is 1 µg/mL (≈ 2.32 µM); in test [2], 8 µg/mL (≈ 18.6 µM); in test [3], 1 µg/mL (≈ 2.32 µM); in test [4], 25 µg/mL (≈ 58.1 µM); in test [5], 0.5 µg/mL (≈ 1.16 µM); in test [6] it was 0.25 µg/mL (≈ 0.581 µM).

Consider `O=C(O)c1cn(C2CC2)c2c(F)c(N3CCC(n4nncc4C(=O)O)C3)c(F)cc2c1=O` (stereo not drawn) [Example 43, 1-Cyclopropyl-6,8-difluoro-7-(3-(5-carboxy-1,2,3-triazol-1-yl)-pyrrolidin-1-yl)-1,4-dihydro-4-oxo-quinoline-3-carboxylic acid], for which the minimum inhibitory concentration (MIC) was 8 µg/mL (≈ 18 µM) in test [7]; 32 µg/mL (≈ 71.8 µM) in test [1]; over 32 µg/mL in test [2]; 32 µg/mL (≈ 71.8 µM) in test [3]; 8 µg/mL (≈ 18 µM) in test [4]; 16 µg/mL (≈ 35.9 µM) in test [5]. The MIC in test [6] came out at 32 µg/mL (≈ 71.8 µM).

As to `Cc1c(F)c(N2CCC(n3ccnn3)C2)c(F)c2c1c(=O)c(C(=O)O)cn2C1CC1` (stereo not drawn) [Example 24, 1-Cyclopropyl-6,8-difluoro-5-methyl-7-[3-(1,2,3-triazol-1-yl)pyrrolidin-1-yl]-1,4-dihydro-4-oxo-quinoline-3-carboxylic acid], the MIC in test [7] is at most 0.015 µg/mL; in test [1] it was 0.5 µg/mL (≈ 1.2 µM); in test [2], 4 µg/mL (≈ 9.63 µM); in test [3], 0.5 µg/mL (≈ 1.2 µM); in test [4], at most 0.015 µg/mL; in test [5], 0.12 µg/mL (≈ 0.289 µM). The MIC in test [6] amounted to 0.25 µg/mL (≈ 0.602 µM).

As to `O=C(O)c1cn(C2CC2)c2c(F)c(N3CCC(n4cc(-c5ccccc5)nn4)C3)c(F)cc2c1=O` (stereo not drawn) [Example 46, 1-cyclopropyl-6,8-difluoro-7-[3-(4-phenyl-1,2,3-triazol-1-yl)-pyrrolidin-1-yl]-1,4-dihydro-4-oxo-quinoline-3-carboxylic acid], the MIC in test [7] amounted to 0.015 µg/mL (≈ 0.0314 µM); in test [1] it was 0.015 µg/mL (≈ 0.0314 µM); in test [2] it was 32 µg/mL (≈ 67 µM); in test [3], 1 µg/mL (≈ 2.09 µM); in test [4], 0.015 µg/mL (≈ 0.0314 µM); in test [5], 0.25 µg/mL (≈ 0.524 µM). The minimal inhibitory concentration (MIC) in test [6] turned out to be 1 µg/mL (≈ 2.09 µM).

With `O=C(O)c1cn(C2CC2)c2c(F)c(N3CCC(n4cncn4)C3)c(F)cc2c1=O` (stereo not drawn) [Example 29, 1-Cyclopropyl-6,8-difluoro-7-[3-(1,2,4-triazol-1-yl)pyrrolidin-1-yl]-1,4-dihydro-4-oxo-quinoline-3-carboxylic acid], the minimal inhibitory concentration (MIC) in test [7] is 0.06 µg/mL (≈ 0.149 µM); in test [1], 0.25 µg/mL (≈ 0.623 µM); in test [2] it was 4 µg/mL (≈ 9.97 µM); in test [3], 0.5 µg/mL (≈ 1.25 µM); in test [4], 0.03 µg/mL (≈ 0.0747 µM); in test [5] it was 0.12 µg/mL (≈ 0.299 µM). The minimum inhibitory concentration (MIC) in test [6] worked out at 0.25 µg/mL (≈ 0.623 µM).

Turning to `Nc1cn(C2CCN(c3c(F)c(N)c4c(=O)c(C(=O)O)cn(C5CC5)c4c3F)C2)nn1` (stereo not drawn) [Example 41, 5-Amino-1-cyclopropyl-6,8-difluoro-7-(3-(4-amino-1,2,3-triazol-1-yl)-pyrrolidin-1-yl)-1,4-dihydro-4-oxo-quinoline-3-carboxylic acid], the minimum inhibitory concentration (MIC) turned out to be 0.03 µg/mL (≈ 0.0695 µM) in test [4] and 0.12 µg/mL (≈ 0.278 µM) in test [5].

With `Cc1c(F)c(N2CCC(n3cc(-c4ccccc4)nn3)C2)c(F)c2c1c(=O)c(C(=O)O)cn2C1CC1` (stereo not drawn) [Example 48, 1-cyclopropyl-6,8-difluoro-5-methyl-7-[3(4-phenyl-1,2,3-triazol-1-yl)-pyrrolidin-1-yl]-1,4-dihydro-4-oxo-quinoline-3-carboxylic acid], the minimal inhibitory concentration (MIC) in test [7] amounted to 0.015 µg/mL (≈ 0.0305 µM); in test [1], 0.015 µg/mL (≈ 0.0305 µM); in test [2], 16 µg/mL (≈ 32.6 µM); in test [3], 4 µg/mL (≈ 8.14 µM); in test [4], 0.015 µg/mL (≈ 0.0305 µM); in test [5] it was 1 µg/mL (≈ 2.03 µM). Besides, the MIC in test [6] amounted to 4 µg/mL (≈ 8.14 µM).

In the case of `Cc1cn(C2CCN(c3c(F)cc4c(=O)c(C(=O)O)cn5c4c3OC[C@@H]5C)C2)nn1` (single isomer, unassigned; (-)) [Example 39], the MIC turned out to be 0.12 µg/mL (≈ 0.29 µM) in test [7]; 1 µg/mL (≈ 2.42 µM) in test [1]; 8 µg/mL (≈ 19.4 µM) in test [2]; 1 µg/mL (≈ 2.42 µM) in test [3]; 0.03 µg/mL (≈ 0.0726 µM) in test [4]; 0.25 µg/mL (≈ 0.605 µM) in test [5]. Further, the MIC in test [6] was determined as 1 µg/mL (≈ 2.42 µM).

On to `Nc1cn(C2CCN(c3c(F)cc4c(=O)c(C(=O)O)cn(C5CC5)c4c3F)C2)nn1` (stereo not drawn) [Example 42, 1-Cyclopropyl-6,8-difluoro-7-(3-(4-amino-1,2,3-triazol-1-yl)-pyrrolidin-1-yl)-1,4-dihydro-4-oxo-quinoline-3-carboxylic acid], for which the MIC worked out at 1 µg/mL (≈ 2.4 µM) in test [7]; 1 µg/mL (≈ 2.4 µM) in test [1]; 4 µg/mL (≈ 9.61 µM) in test [2]; 1 µg/mL (≈ 2.4 µM) in test [3]; 0.25 µg/mL (≈ 0.6 µM) in test [4]; 0.5 µg/mL (≈ 1.2 µM) in test [5]. Further, the MIC in test [6] stood at 1 µg/mL (≈ 2.4 µM).

For the compound `CCn1cc(C(=O)O)c(=O)c2cc(F)c(N3CCNCC3)cc21` [MFLX, Norfloxacin, reference compound], the minimum inhibitory concentration (MIC) in test [7] was determined as 16 µg/mL (≈ 50.1 µM); in test [1], 1 µg/mL (≈ 3.13 µM); in test [2], 1 µg/mL (≈ 3.13 µM); in test [3], 0.12 µg/mL (≈ 0.376 µM); in test [4] it was 1 µg/mL (≈ 3.13 µM); in test [5], 0.06 µg/mL (≈ 0.188 µM). Moreover, in test [6], the MIC was 0.12 µg/mL (≈ 0.376 µM).

Consider `COc1c(N2CCC(n3ccnn3)C2)c(F)cc2c(=O)c(C(=O)O)cn(C3CC3)c12` (stereo not drawn) [Example 32, 1-Cyclopropyl-6-fluoro-7-[3-(1,2,3-triazol-1-yl)pyrrolidin-1-yl]-8-methoxy-1,4-dihydro-4-oxo-quinoline-3-carboxylic acid], for which the MIC was at most 0.03 µg/mL in test [7]; 0.12 µg/mL (≈ 0.29 µM) in test [1]; 4 µg/mL (≈ 9.68 µM) in test [2]; 0.25 µg/mL (≈ 0.605 µM) in test [3]; at most 0.03 µg/mL in test [4]; 0.12 µg/mL (≈ 0.29 µM) in test [5]. Also, the MIC in test [6] was 0.5 µg/mL (≈ 1.21 µM).

For the compound `O=C(O)c1cn(C2CC2)c2c(F)c(N3CCC(n4ncnn4)C3)c(F)cc2c1=O` (stereo not drawn) [Example 51, 1-Cyclopropyl-6,8-difluoro-7-[3-(1,2,3,4-tetrazol-2-yl)pyrrolidin-1-yl]-1,4-dihydro-4-oxo-quinoline-3-carboxylic acid], the minimum inhibitory concentration (MIC) in test [7] was at most 0.03 µg/mL; in test [1], 0.12 µg/mL (≈ 0.298 µM); in test [2] it was 2 µg/mL (≈ 4.97 µM); in test [3], 0.12 µg/mL (≈ 0.298 µM); in test [4], at most 0.03 µg/mL; in test [5], 0.06 µg/mL (≈ 0.149 µM).

Regarding `O=C(O)c1cn(C2CC2)c2c(F)c(N3CCC(n4cnnn4)C3)c(F)cc2c1=O` (stereo not drawn) [Example 52, 1-Cyclopropyl-6,8-fluoro-7-[3-(1,2,3,4-tetrazol-1-yl)pyrrolidin-1-yl]-1,4-dihydro-4-oxo-quinoline-3-carboxylic acid], the MIC turned out to be 0.12 µg/mL (≈ 0.298 µM) in test [1]; 2 µg/mL (≈ 4.97 µM) in test [2]; 0.25 µg/mL (≈ 0.621 µM) in test [3]; 0.06 µg/mL (≈ 0.149 µM) in test [4]; 0.06 µg/mL (≈ 0.149 µM) in test [5].

For the compound `O=C(O)c1cn(C2CCN(c3c(F)cc4c(=O)c(C(=O)O)cn(C5CC5)c4c3F)C2)nn1` (stereo not drawn) [Example 45, 1-cyclopropyl-6,8-difluoro-7-[3-(4-carboxyl-1,2,3-triazol-1-yl)pyrrolidin-1-yl]-1,4-dihydro-4-oxo-quinoline-3-carboxylic acid], the MIC in test [7] was 1 µg/mL (≈ 2.25 µM); in test [5], 0.25 µg/mL (≈ 0.561 µM).

On to `Nc1c(F)c(N2CCC(n3cncn3)C2)c(F)c2c1c(=O)c(C(=O)O)cn2C1CC1` (stereo not drawn) [Example 28, 5-Amino-1-cyclopropyl-6,8-difluoro-7-[3-(1,2,4-triazol-1-yl)pyrrolidin-1-yl]-1,4-dihydro-4-oxo-quinoline-3-carboxylic acid], for which the MIC is at most 0.015 µg/mL in test [4] and 0.12 µg/mL (≈ 0.288 µM) in test [5].
